Reference: patent US6890917B2, “Geldanamycin derivative and method of treating cancer using same” (The United States of America as represented by the …, priority 2001, dated 2005)

Test system: standard panel of 12 human tumor cell lines (NCI-H23, NCI-H522, MDA-MB-231, MDA-MB-435, SW-620, COLO 205, LOX IMVI, UACC-62, OVCAR-3, OVCAR-5, U251, SF295)
Assay: Hollow fiber assay (HFA) with stable endpoint MTT assay, compound given to mice carrying intraperitoneal and subcutaneous fiber implants
Format: in vivo
Parameters: Total HFA Score: scale not given here
Conditions: for Total HFA Score / IP Score / SC Score: HFA in mice; for Total HFA Score: IP + SC scores; for IP Score: intraperitoneal fiber implants; for IP Score / SC Score: 2 points per 50% or greater reduction in viable cell mass; for SC Score: subcutaneous fiber implants; for in vivo anti-cancer activity compared with Compound C (in words): intraperitoneal injection, Table 1
Protocol: Compounds A-C were tested in a hollow fiber assay for in vivo activity. Each compound was tested against a standard panel of 12 human tumor cell lines including NCI-H23, NCI-H522, MDA-MB-231, MDA-MB-435, SW-620, COLO 205, LOX IMVI, UACC-62, OVCAR-3, OVCAR-5, U251 and SF295. The cell lines were cultivated in RPMI-1640 containing 10% FBS and 2 mM glutamine. On the day preceding hollow fiber preparation, the cells were given a supplementation of fresh medium to maintain log phase growth. For fiber preparation, the cells were harvested by standard trypsinization technique and resuspended at the desired cell density. The cell suspensions were flushed into 1 mm polyvinylidene fluoride (PVDF) hollow fibers (MW exclusion of 500,000 Da) and subsequently heat-sealed at 2 cm intervals. The samples generated from these seals were placed into tissue culture medium and incubated at 37° C. in 5% CO2 for 24-48 hours prior to implantation. A total of 3 different tumor cell lines were prepared for each experiment so that each mouse received 3 intraperitoneal implants (1 of each tumor cell line) and 3 subcutaneous implants (1 of each tumor cell line). A total of 4 experiments were conducted on each mouse (3 cell lines/experiment×4 experiments=12 cell lines).
On the day of implantation, samples of each tumor cell line were quantitated for viable cell mass by a stable endpoint MTT assay so that the time 0 cell mass was known. In the MTT assay, the fibers were incubated in 6-well plates (1-6 fibers/well) with 3 mL of pre-warmed (37° C.) complete medium containing MTT (1 mg/mL) (Sigma) for 4 hours at 37° C. in 5% CO2. The MTT solution was aspirated and the fibers were washed with 2 mL of saline containing 2.5% protamine sulfate overnight at 4° C. A second wash was performed with 2 mL of saline containing 2.5% protamine sulfate, and the fibers were maintained at 4° C. for a minimum of 2 hours. The fibers were then removed from the protamine sulfate, individually wiped, placed in a 24-well plate (1 fiber/well), cut in half and dried overnight in a biosafety hood. To extract the formazan, DMSO was added (0.25 mL) to each well and the plates were rotated for 4 hours at room temperature. The extracted samples were transferred to 96-well plates and the OD was determined at 540 nm. From these spectrophotomeric measurements, the cytostatic and cytocidal capacities of the test compound were assessed.
Following implantation of the hollow fibers, mice were treated with one of the compounds, as listed in Tables 1 and 2 starting on day 3 or 4 following fiber implantation and continuing once daily for a total of 4 doses. Each compound was either assessed by intraperitoneal injection (Example 1) or by oral administration (Example 2) at 2 dose levels with 3 mice/dose/experiment. Vehicle controls consisted of 6 mice receiving the compound diluent only. The fibers were collected from the mice on the day following the fourth compound treatment and subjected to the stable endpoint MTT assay. The optical density of each sample was determined spectrophotometrically at 540 nm and the mean of each treatment group was calculated. The percent net cell growth in each treatment group was determined and compared to the percent net cell growth in the vehicle treated controls.
In the context of the following examples, compounds were selected for further testing (e.g., time/dose exposure studies, preliminary pharmacology studies, subcutaneous xenograft efficacy studies) on the basis of several hollow fiber assay criteria, including (1) a reduction in net cell growth of 50% or greater in 10 of the 48 possible test combinations; (2) a reduction in net cell growth of 50% or greater in a minimum of 4 of the 24 distant site combinations (SC score); and/or (3) cell kill of 1 or more cell lines in either implant site (reduction in the viable cell mass below the level present at the start of the experiment). […]

[1] = compound by intraperitoneal injection once daily for 4 days, 2 dose levels (A, B: 75 and 50 mg/kg/dose; C: 20 and 13.4 mg/kg/dose)
[2] = compound orally (PO) once daily for 4 days, 75 and 50 mg/kg/dose

| Structure (SMILES) | Total HFA Score [1] | IP Score [1] | SC Score [1] | in vivo anti-cancer activity compared with Compound C (in words) (HFA) | Total HFA Score [2] | IP Score [2] | SC Score [2] | in vivo anti-cancer activity by oral administration (in words) (HFA, oral administration, Table 2) |
| --- | --- | --- | --- | --- | --- | --- | --- | --- |
| CO[C@H]1/C=C\C=C(/C)C(=O)NC2=CC(=O)C(NCCN(C)C)=C(C[C@@H](C)C[C@H](OC)[C@H](O)[C@@H](C)/C=C(\C)[C@@H]1OC(N)=O)C2=O [Compound A, 17-Dimethylaminoethylamino-17-demethoxygeldanamycin] | 30 | 20 | 10 | significantly greater in vivo anti-cancer activity |  |  |  |  |
| CO[C@H]1/C=C\C=C(/C)C(=O)NC2=CC(=O)C(NCCN(C)C)=C(C[C@@H](C)C[C@H](OC)[C@H](O)[C@@H](C)/C=C(\C)[C@@H]1OC(N)=O)C2=O.Cl [Compound B, 17-Demethoxy-17-[[2-(dimethylamino)ethyl]amino]geldanamycin hydrochloride] | 42 | 24 | 18 | significantly greater in vivo anti-cancer activity | 20 | 10 | 10 | significant in vivo anti-cancer activity |
| CO[C@H]1/C=C\C=C(/C)C(=O)NC2=CC(=O)C(NCCCN(C)C)=C(C[C@@H](C)C[C@H](OC)[C@H](O)[C@@H](C)/C=C(\C)[C@@H]1OC(N)=O)C2=O [Compound C, 17-Dimethylaminopropylamino-17-demethoxygeldanamycin, reference compound] | 16 | 14 | 2 |  |  |  |  |  |
